ChEMBL document CHEMBL3045287, “Synthesis and antimicrobial activity of morpholinyl/piperazinylbenzothiazines” (2012)

What was measured:
Bacillus cereus = experiment: Antimicrobial activity against Bacillus cereus at 30 ug/ml after 24 hr by well diffusion assay; format: functional; settings: read-out: IZ
Escherichia coli = experiment: Antimicrobial activity against Escherichia coli at 30 ug/ml after 24 hr by well diffusion assay; format: functional; settings: read-out: IZ

SMILES	zone of inhibition at 30 µg/mL (Bacillus cereus)	zone of inhibition at 30 µg/mL (Escherichia coli)
O=C(N[C@H](CO)[C@H](O)c1ccc([N+](=O)[O-])cc1)C(Cl)Cl [CHLORAMPHENICOL]	10 mm	9 mm
CC1=C(C(=O)N2CCOCC2)Sc2cc(C)ccc2N1	9 mm	12 mm
CC1=C(C(=O)N2CCOCC2)Sc2cc(Cl)ccc2N1	8 mm	8 mm
CC1=C(C(=O)N2CCN(CCO)CC2)Sc2cc(Cl)ccc2N1	9 mm	11 mm
CC1=C(C(=O)N2CCN(CCO)CC2)Sc2ccccc2N1	7 mm	9 mm
CC1=C(C(=O)N2CCOCC2)Sc2ccccc2N1	12 mm	9 mm
Cc1ccc2c(c1)SC(C(=O)N1CCOCC1)=C(C(C)C)N2	10 mm	7 mm
